Where “and” joins values, the source holds several entries; their conditions need not be identical. Equal values may be shown once. Read-outs that look alike come from different tables or passages of the source.
Key:
H9c2 cardiomyoblasts = assay: MTT cytotoxicity assay, H9c2 cells; type: cell-based, rat; details: for IC50: MTT; for MTT, relative to control (0 = 100): H9c2
Description: (§1) For cytotoxicity experiments, cancer cells were seeded at a density of 5,000 (MCF-7), 10,000 (HL-60) or 2,000 cells/well (HCT116 and A549) in 96-well plates (TPP) for 24 h/37°C prior to the addition of examined agents. The non-cancerous cells, 3T3 and H9c2 cells, were cultured for 24 h/37°C in 96-well plates at a density of 10,000 cells/well, the medium was then changed to serum- and pyruvate-free DMEM (Sigma-Aldrich) and incubated with the cells for another 24 h/37°C. The cytotoxic effects of Bp4eT and its metabolites were studied at different concentrations after a 72 h/37°C incubation. In order to aid the dissolution of the lipophilic ligands, 0.1% dimethyl sulfoxide (v/v) (DMSO; Sigma-Aldrich) was present in the culture medium of all groups. At this concentration, DMSO had no effect on cellular proliferation or viability.
(§2) The viability of cells were determined using an MTT assay (Sigma-Aldrich) according to previously established methods. The optical density of soluble MTT was measured at λ = 570 nm, subtracting the λ = 690 nm background using a Tecan Infinite 200M plate reader (Tecan Group, Männedorf, Switzerland). The viability or proliferation of experimental groups was expressed as a percentage of the untreated controls (100%).
(§3) SigmaStat for Windows 3.5 (Systat Software, San Jose, CA, USA) statistical software package was utilized to analyze results. The data are expressed as the mean ± SD of a given number of experiments. Statistical significance was determined using a one-way ANOVA with a Bonferroni post-hoc test or Student’s t-test. The results were considered to be statistically significant when p < 0.05. The IC50 values were calculated using CalcuSyn 2.0 software (Biosoft, Cambridge, UK). Cell cycle analysis was evaluated using MultiCycle AV Software (Phoenix Flow Systems, San Diego, CA, USA).

[1] = system: 3T3 mouse embryo fibroblasts; assay: MTT cytotoxicity assay, 3T3 cells; type: cell-based; details: for MTT, relative to control (0 = 100): 3T3, 10 000 b/j
Description: as §1, §2, §3

MCF-7 cells = assay: Cellular 59Fe uptake from 59Fe2-transferrin; type: cell-based, human; design: key to Uptake 59Fe, Ave / Uptake 59Fe: % of internalized 59Fe in untreated control cells; details: Control Ave = 100
From the text: Human transferrin (Sigma) was labeled with ^56Fe or ^59Fe (PerkinElmer, Massachusetts, USA) to produce ^56Fe2-transferrin or ^59Fe2-transferrin (^59Fe2-Tf), respectively, with a final specific activity of 500 pCi/pmol Fe, as previously described. Unbound ^59Fe was removed by exhaustive vacuum dialysis against a large excess of 0.15 M NaCl buffered to pH 7.4 with 1.4% NaHCO3 by standard methods.
The ability of the chelators to prevent cellular ^59Fe uptake from ^59Fe2-transferrin was examined using standard techniques. In brief, confluent MCF-7 cells in 6-well plates were incubated with 0.75 μM ^59Fe2-Tf for 3 h/37°C in the presence of Bp4eT or its metabolites (25 μM). The cells were then washed four times with ice-cold PBS and the level of internalized ^59Fe was determined by incubating the cell monolayer for 30 min/4°C with the general protease, Pronase (1 mg/mL; Sigma-Aldrich). The cells were then removed from the monolayer with a plastic spatula on ice and centrifuged for 1 min/12,000 x g/4°C. The supernatant represents membrane-bound, Pronase-sensitive ^59Fe that was released by the protease, while the Pronase-insensitive fraction represents internalized ^59Fe. The amount of internalized ^59Fe was expressed as a percentage of ^59Fe internalized by control (untreated) cells.

caspases 3/7 = assay: Caspase activity, luminescent kit, caspases 3/7; type: cell-based, human; details: for kaspáza (3) a 7, raw signal / kaspáza (3) a 7, signal / viabilita: individual experiments by date; for kaspáza (3) a 7, raw signal, průměry / kaspáza (3) a 7, % kontroly / kaspáza (3) a 7, signal / viabilita, průměry: mean; for kaspáza (3) a 7, % kontroly / kaspáza (3) a 7, signal / viabilita / kaspáza (3) a 7, signal / viabilita, průměry: normalised to viability
Description: To assess the effect of the compounds on caspase activity, MCF-7 cells were incubated with 100 nM Bp4eT or its metabolites for 3, 24 or 72 h/37°C in 96-well plates, as described above. The cells were then lysed by adding 100 μL of cold lysis buffer (100 mM HEPES, 10 mM CHAPS, 10 mM D-L-dithiothreitol, pH 7.4) to 100 μL of medium in each well. Lysates were immediately frozen at -80°C. Thawed lysates were used to assess caspase activity using luminescent kits for caspases 3/7, 8 and 9 (Promega, Madison, WI, USA). The luminescence was measured using the Tecan Infinite 200M plate reader. Caspase activity in the experimental groups was corrected according to the cellular viability of each group and expressed as a percentage of activity of the untreated control (100%).

CCNC(=O)NN=C(c1ccccc1)c1ccccn1 [Z-Bp4eS, 2-benzoylpyridine 4-ethylsemicarbazone]
IC50 (H9c2 cardiomyoblasts; H9c2, 72 h/37°C, mean ± SD, n ≥ 4, read-out: IC50): 343 ± 95.1 µM
MTT, relative to control (0 = 100) (H9c2 cardiomyoblasts; 10 000 b/j, 1 μM, průměr (mean), sheet Z-Bp4eS): 99.81
MTT, relative to control (0 = 100) (H9c2 cardiomyoblasts; 10 000 b/j, 1 μM, single experiment (date), sheet Z-Bp4eS): 102.371 and 103.08 and 95.5416 and 98.2281
MTT, relative to control (0 = 100) (H9c2 cardiomyoblasts; 10 000 b/j, 3 μM, průměr (mean), sheet Z-Bp4eS): 93.78
MTT, relative to control (0 = 100) (H9c2 cardiomyoblasts; 10 000 b/j, 3 μM, single experiment (date), sheet Z-Bp4eS): 92.602 and 95.2542 and 92.4159 and 94.8358
MTT, relative to control (0 = 100) (H9c2 cardiomyoblasts; 10 000 b/j, 10 μM, průměr (mean), sheet Z-Bp4eS): 89.06
MTT, relative to control (0 = 100) (H9c2 cardiomyoblasts; 10 000 b/j, 10 μM, single experiment (date), sheet Z-Bp4eS): 88.6483 and 89.659 and 90.3674 and 87.5524
MTT, relative to control (0 = 100) (H9c2 cardiomyoblasts; 10 000 b/j, 30 μM, průměr (mean), sheet Z-Bp4eS): 76.27
MTT, relative to control (0 = 100) (H9c2 cardiomyoblasts; 10 000 b/j, 30 μM, single experiment (date), sheet Z-Bp4eS): 77.9281 and 80.0605 and 74.6409 and 72.4521
MTT, relative to control (0 = 100) (H9c2 cardiomyoblasts; 10 000 b/j, 100 μM, průměr (mean), sheet Z-Bp4eS): 56.31
MTT, relative to control (0 = 100) (H9c2 cardiomyoblasts; 10 000 b/j, 100 μM, single experiment (date), sheet Z-Bp4eS): 59.4912 and 57.2744 and 57.5228 and 50.9483
MTT, relative to control (0 = 100) (H9c2 cardiomyoblasts; 10 000 b/j, 300 μM, průměr (mean), sheet Z-Bp4eS): 53.60
MTT, relative to control (0 = 100) (H9c2 cardiomyoblasts; 10 000 b/j, 300 μM, single experiment (date), sheet Z-Bp4eS): 52.3885 and 58.4831 and 53.7777 and 49.7549
MTT, relative to control (0 = 100) (H9c2 cardiomyoblasts; 10 000 b/j, 1000 μM, průměr (mean), sheet Z-Bp4eS): 39.75
MTT, relative to control (0 = 100) (H9c2 cardiomyoblasts; 10 000 b/j, 1000 μM, single experiment (date), sheet Z-Bp4eS): 41.1185 and 45.5292 and 39.9014 and 32.4603
IC50 (H9c2 cardiomyoblasts; Rattus norvegicus, H9c2, H9c2, 10 000 b/j, průměr (mean), sheet Z-Bp4eS, read-out: IC50 měřené): 343 µM
IC50 ([1]; 3T3, 72 h/37°C, MTT, mean ± SD, n ≥ 4, read-out: IC50): > 1000 µM
MTT, relative to control (0 = 100) ([1]; 1 μM, průměr (mean)): 99.81
MTT, relative to control (0 = 100) ([1]; 1 μM, single experiment (date)): 90.4217 and 112.179 and 103.613 and 93.692 and 99.1404
MTT, relative to control (0 = 100) ([1]; 3 μM, průměr (mean)): 93.98
MTT, relative to control (0 = 100) ([1]; 3 μM, single experiment (date)): 89.9896 and 95.9618 and 102.444 and 92.291 and 89.1987
MTT, relative to control (0 = 100) ([1]; 10 μM, průměr (mean)): 93.85
MTT, relative to control (0 = 100) ([1]; 10 μM, single experiment (date)): 91.4468 and 99.0627 and 95.1304 and 94.2734 and 89.336
MTT, relative to control (0 = 100) ([1]; 30 μM, průměr (mean)): 90.21
MTT, relative to control (0 = 100) ([1]; 30 μM, single experiment (date)): 100.856 and 90.0957 and 87.8236 and 82.0687
MTT, relative to control (0 = 100) ([1]; 100 μM, průměr (mean)): 73.57
MTT, relative to control (0 = 100) ([1]; 100 μM, single experiment (date)): 81.8752 and 74.6133 and 74.3643 and 63.4281
MTT, relative to control (0 = 100) ([1]; 300 μM, průměr (mean)): 72.55
MTT, relative to control (0 = 100) ([1]; 300 μM, single experiment (date)): 79.104 and 69.1035 and 70.1959 and 71.7888
MTT, relative to control (0 = 100) ([1]; 1000 μM, průměr (mean)): 63.36
MTT, relative to control (0 = 100) ([1]; 1000 μM, single experiment (date)): 73.2159 and 60.5042 and 61.05 and 58.6559
Uptake 59Fe, Ave (MCF-7 cells; average of all replicates): 99.1556
Uptake 59Fe (MCF-7 cells; single replicate (three per date)): 95.0144 and 99.433 and 101.961 and 99.9491 and 96.6715 and 101.111 and 99.7324 and 96.809 and 101.719
kaspáza (3) a 7, raw signal (caspases 3/7; 3 hodiny): 1797.5 and 1540 and 1728.5 and 1382
kaspáza (3) a 7, raw signal, průměry (caspases 3/7; 3 hodiny): 1612
kaspáza (3) a 7, % kontroly (caspases 3/7; 3 hodiny): 100.57 % kontroly
kaspáza (3) a 7, signal / viabilita (caspases 3/7; 3 hodiny): 18.4535 and 15.81 and 17.7452 and 14.1879
kaspáza (3) a 7, signal / viabilita, průměry (caspases 3/7; 3 hodiny): 16.5491
kaspáza (3) a 7, raw signal (caspases 3/7; 24 hodin): 2520 and 2115 and 2668.5 and 2356.5
kaspáza (3) a 7, raw signal, průměry (caspases 3/7; 24 hodin): 2415
kaspáza (3) a 7, % kontroly (caspases 3/7; 24 hodin): 106.11 % kontroly
kaspáza (3) a 7, signal / viabilita (caspases 3/7; 24 hodin): 25.3376 and 21.2655 and 26.8307 and 23.6936
kaspáza (3) a 7, signal / viabilita, průměry (caspases 3/7; 24 hodin): 24.2818
kaspáza (3) a 7, raw signal (caspases 3/7; 72 hodin): 7018 and 6964.5 and 7418.5 and 7469
kaspáza (3) a 7, raw signal, průměry (caspases 3/7; 72 hodin): 7217.5
kaspáza (3) a 7, % kontroly (caspases 3/7; 72 hodin): 104.65 % kontroly
kaspáza (3) a 7, signal / viabilita (caspases 3/7; 72 hodin): 75.0267 and 74.4548 and 79.3083 and 79.8482
kaspáza (3) a 7, signal / viabilita, průměry (caspases 3/7; 72 hodin): 77.1595

Source: publication PMC4604124, “In Vitro Characterization of the Pharmacological Properties of the Anti-Cancer Chelator, Bp4eT, and Its Phase I Metabolites” (PLoS ONE, 2015)
